Key:
[1] = system: osteoblasts; experiment: proliferation of osteoblasts promoted by LF (MTT method); format: cell-based; settings: 1 nM together with LF, FIG. 4
Protocol: Based on transcriptome data, the inventors verified that LF can promote the high expression of VDR at both the gene and protein levels. In order to confirm the role of this pathway in the promotion of osteoblast proliferation and differentiation by LF, the inventors first designed a VDR siRNA to achieve the purpose of transiently silencing VDR genes. The principle of siRNA is the post-transcriptional gene silencing mechanism that blocks the expression of corresponding gene. 20 μM VDR siRNA was added to osteoblasts, the proliferation rate of osteoblasts promoted by LF was detected by MTT method, and the ALP activity of osteoblasts promoted by LF was detected by enzyme-linked immunoassay.
The inventors first confirmed that LF promotes the proliferation and differentiation of osteoblasts through the regulation of the VDR pathway using the osteoblast model. Since the osteogenic effect of VDR is mainly achieved by vitamin D, in order to simulate the normal physiological environment, the inventors treated osteoblasts with both 1 nM of […] (the active form of vitamin D) and LF, and then studied the proliferation and differentiation of osteoblasts.

[2] = system: VDR; experiment: effect of p38 and TGF-β/Smads pathway inhibitors on VDR expression promoted by LF; format: cell-based; settings: for effect of inhibitor on the expression of VDR promoted by LF in the cytoplasm: FIG. 17A; for effect of inhibitor on the expression of VDR promoted by LF in nucleus: FIG. 17B
Protocol: In order to verify the mechanism of LF for promoting the high expression of VDR, firstly, inhibitors were used in the cytoplasm to inhibit the extracellular signaling pathway to detect the promotion effect of LF on VDR. The p38 inhibitor SB203580 and the TGF-β/smads pathway inhibitor SB431542 were added to detect the expression of VDR promoted by LF.
Since VDR mainly functions in the nucleus, after inhibiting the pathway using SB203580 and SB431542 inhibitors, the expression of VDR promoted by LF in nucleus was detected.

| Compound | effect of the presence of 1.25(OH)2D3 on the osteogenic activity of LF [1] | effect of inhibitor on the expression of VDR promoted by LF in the cytoplasm [2] | effect of inhibitor on the expression of VDR promoted by LF in nucleus [2] |
| --- | --- | --- | --- |
| C=C1/C(=C\C=C2/CCC[C@]3(C)[C@@H]([C@H](C)CCCC(C)(C)O)CC[C@@H]23)C[C@@H](O)C[C@@H]1O [1.25(OH)2D3, reference compound] | does not affect |  |  |
| C[S+]([O-])c1ccc(-c2nc(-c3ccncc3)c(-c3ccc(F)cc3)[nH]2)cc1 (centres unmarked) [SB203580] |  | no significant effect | no significant effect |
| NC(=O)c1ccc(-c2nc(-c3ccc4c(c3)OCO4)c(-c3ccccn3)[nH]2)cc1 [SB431542] |  | no significant effect | no significant effect |
